MIC data for 22 compounds are collected here from US20180327367A1, “MACROCYCLIC BROAD SPECTRUM ANTIBIOTICS” (priority 2015, published 2018).

Values after ≈ are worked out from the molar mass of the structure shown. Read-outs that look alike come from different tables or passages of the source. Bounds are passed on as bounds.

Type in all cases: cell-based
For experiment [1], the system named is Methicillin Resistant Staphylococcus aureus strain USA 300, NRS384. Put plainly: Minimum inhibitory concentration, broth micro-dilution (CLSI), S. aureus. The conditions noted are these: Staphylococcus aureus, MRSA / NRS 384 / USA300, 22 h, 35° C., 22 hours. Put shortly:
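Colonies grown 20 hours at 35° C were suspended in cation-adjusted Mueller Hinton Broth with 0.002% Tween-80. Cells were then added to 2-fold compound dilutions starting at 4 or 0.5 μg/mL, at OD600 0.0005.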
For orientation: Dilution methods test growth across graded concentrations, often in twofold steps.

Experiment [2] relates to Escherichia coli MC4100 harboring the IMP4213 (E. coli IMP). Put plainly: microbe, parasite or virus in culture. The conditions noted are these: Escherichia coli, 22 h, read-out: MIC (μg/mL) E. coli IMP, E. coli MC4100 IMP4213, increased outer-membrane permeability; 35° C., 22 hours. A digest of the protocol: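 Broth micro-dilution per CLSI in cation-adjusted Mueller Hinton Broth with 0.002% Tween-80; E. coli MC4100 carries IMP4213, raising outer-membrane permeability. Compounds tested as 2-fold serial dilutions (10 concentrations) from 4 μg/mL (protocol 2) or 0.5 μg/mL (protocol 3); inoculum OD600 0.0005, 35° C for 22 hours.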

The test system of experiment [3] is Escherichia coli ATCC 25922. Put plainly: Minimum inhibitory concentration, broth micro-dilution (CLSI), E. coli. To be noted: Escherichia coli, ATCC25922, 22 h, 35° C., 22 hours.
Setting [4] is: MRSA USA 300 NRS384, read-out: MIC (μg/mL) S. aureus.
Where [5] appears, read: E. coli ATCC 25922, read-out: MIC (μg/mL) E. coli.
[6] abbreviates: read-out: MIC (μg/mL) S. aureus, MRSA USA 300 NRS384.
Where [7] appears, read: read-out: MIC (μg/mL) E. coli, E. coli ATCC 25922.

Regarding `CCCCCCc1ccc(C(=O)N[C@@H](CCNC(=N)N)C(=O)N(C)[C@@H]2C(=O)N[C@@H](C)C(=O)N[C@H](C(=O)NCC#N)Cc3ccc(OCCN)c(c3)-c3cc2ccc3OCCN)c(C)c1` [Compound 485], the MIC was found to be 0.063 µg/mL (≈ 0.0714 µM) in experiment [1] (setting [4]), 0.031 µg/mL (≈ 0.0351 µM) in experiment [2] and 2 µg/mL (≈ 2.27 µM) in experiment [3] (setting [5]).

Regarding `CCCCCCCCc1ccc2c(=O)n([C@@H](CCN)C(=O)N(C)[C@@H]3C(=O)N[C@@H](C)C(=O)N[C@H](C(=O)NCC#N)Cc4ccc(OCCN)c(c4)-c4cc3ccc4OCCN)cnc2c1` [Compound 486], the MIC in experiment [1] (setting [6]) was determined as 0.094 µg/mL (≈ 0.107 µM); in experiment [2] it was 0.13 µg/mL (≈ 0.148 µM); in experiment [3] (setting [7]) it was 3 µg/mL (≈ 3.41 µM).

In the case of `CCCCCCCCc1ccc2c(=O)n([C@@H](CCN)C(=O)N(C)[C@@H]3C(=O)N[C@@H](C)C(=O)N[C@H](C(=O)NCC#N)Cc4ccc(OCCN)c(c4)-c4cc3ccc4OCCN)c(C)nc2c1` [Compound 487], the MIC amounted to 0.5 µg/mL (≈ 0.56 µM) in experiment [1] (setting [4]), 0.25 µg/mL (≈ 0.28 µM) in experiment [2] and 8 µg/mL (≈ 8.96 µM) in experiment [3] (setting [5]).

`CCCCCCCCc1ccc2c(c1)CN([C@@H](CCN)C(=O)N(C)[C@@H]1C(=O)N[C@@H](C)C(=O)N[C@H](C(=O)NCC#N)Cc3ccc(OCCN)c(c3)-c3cc1ccc3OCCN)C2=O` [Compound 488]: the MIC is 0.094 µg/mL (≈ 0.109 µM) in experiment [1] (setting [6]), 0.13 µg/mL (≈ 0.15 µM) in experiment [2] and 4 µg/mL (≈ 4.62 µM) in experiment [3] (setting [7]).

Regarding `CCCCCCCCc1ccc2c(c1)C(C)N([C@@H](CCN)C(=O)N(C)[C@@H]1C(=O)N[C@@H](C)C(=O)N[C@H](C(=O)NCC#N)Cc3ccc(OCCN)c(c3)-c3cc1ccc3OCCN)C2=O` (stereo partly drawn) [Compound 489], the MIC in experiment [1] (setting [4]) was determined as 0.19 µg/mL (≈ 0.216 µM); in experiment [2], 0.25 µg/mL (≈ 0.284 µM); in experiment [3] (setting [5]), 8 µg/mL (≈ 9.09 µM).

For `C[C@@H]1NC(=O)[C@@H](N(C)C(=O)[C@H](CCN)NC(=O)CCCc2ccc(F)cc2)c2ccc(OCCN)c(c2)-c2cc(ccc2OCCN)C[C@@H](C(=O)NCC#N)NC1=O` [Compound 493], the MIC was 3 µg/mL (≈ 3.74 µM) in experiment [1] (setting [4]), 2 µg/mL (≈ 2.49 µM) in experiment [2] and over 64 µg/mL in experiment [3] (setting [5]).

As for `CCCCCCc1ccc(C(=O)N[C@@H]2CN[C@H](C(=O)N(C)[C@@H]3C(=O)N[C@@H](C)C(=O)N[C@H](C(=O)NCC#N)Cc4ccc(OCCN)c(c4)-c4cc3ccc4OCCN)C2)c(C)c1` [Compound 498], the MIC in experiment [1] (setting [4]) was 0.5 µg/mL (≈ 0.587 µM); in experiment [2] it was 1 µg/mL (≈ 1.17 µM); in experiment [3] (setting [5]) it was 16 µg/mL (≈ 18.8 µM).

On to `CCCCCCCc1ccc(C(=O)N[C@@H](CCN)C(=O)N(C)[C@@H]2C(=O)N[C@@H](C)C(=O)N[C@H](C(=O)NCC#N)Cc3ccc(OCCNC(=O)CN)c(c3)-c3cc2ccc3OCCNC(=O)CN)c(C)c1` [Compound 499], for which the MIC in experiment [1] (setting [4]) is 0.063 µg/mL (≈ 0.0651 µM); in experiment [2], 0.023 µg/mL (≈ 0.0238 µM); in experiment [3] (setting [5]), 0.5 µg/mL (≈ 0.516 µM).

On to `CCCCCCCCc1ccc(C(=O)N[C@@H](CCC(=O)NC)C(=O)N(C)[C@@H]2C(=O)N[C@@H](C)C(=O)N[C@H](C(=O)NCC#N)Cc3ccc(OCCN)c(c3)-c3cc2ccc3OCCN)c(C)c1` [Compound 501], for which the values for the MIC in experiment [1] (setting [4]), in experiment [2] and in experiment [3] (setting [5]) were 0.38 µg/mL (≈ 0.418 µM), over 0.13 µg/mL and 16 µg/mL (≈ 17.6 µM), respectively.

Take `Cc1nc(-c2ccc(CC(C)C)cc2)ccc1C(=O)N[C@@H](CCN)C(=O)N(C)[C@@H]1C(=O)N[C@@H](C)C(=O)N[C@H](C(=O)NCC#N)Cc2ccc(O)c(c2)-c2cc1ccc2OCCN` [Compound 502]: the MIC in experiment [1] (setting [4]) was 0.063 µg/mL (≈ 0.0745 µM); in experiment [2], 0.003 µg/mL (≈ 0.00355 µM); in experiment [3] (setting [5]), 0.25 µg/mL (≈ 0.296 µM).

Turning to `CCCCc1ccc(-c2ncc(C(=O)N[C@@H](CCN)C(=O)N(C)[C@@H]3C(=O)N[C@@H](C)C(=O)N[C@H](C(=O)NCC#N)Cc4ccc(O)c(c4)-c4cc3ccc4OCCN)c(C)n2)cc1` [Compound 503], the MIC is 0.031 µg/mL (≈ 0.0366 µM) in experiment [1] (setting [4]), 0.002 µg/mL (≈ 0.00236 µM) in experiment [2] and 0.13 µg/mL (≈ 0.153 µM) in experiment [3] (setting [5]).

For the compound `CCCCCCc1ccc(-c2ncc(C(=O)N[C@@H](CCN)C(=O)N(C)[C@@H]3C(=O)N[C@@H](C)C(=O)N[C@H](C(=O)NCC#N)Cc4ccc(O)c(c4)-c4cc3ccc4OCCN)c(C)n2)cc1` [Compound 504], the figures for the MIC in experiment [1] (setting [4]), in experiment [2] and in experiment [3] (setting [5]) were 0.094 µg/mL (≈ 0.107 µM), 0.016 µg/mL (≈ 0.0183 µM) and 0.25 µg/mL (≈ 0.286 µM), respectively.

As to `CCc1ccc(-c2ncc(C(=O)N[C@@H](CCN)C(=O)N(C)[C@@H]3C(=O)N[C@@H](C)C(=O)N[C@H](C(=O)NCC#N)Cc4ccc(O)c(c4)-c4cc3ccc4OCCN)c(C)n2)cc1` [Compound 505], the MIC in experiment [1] (setting [4]) came to 0.25 µg/mL (≈ 0.305 µM); in experiment [2], 0.016 µg/mL (≈ 0.0195 µM); in experiment [3] (setting [5]), 2 µg/mL (≈ 2.44 µM).

On to `CCCCCCc1ccc(-c2ncc(C(=O)N[C@@H](CCN)C(=O)N(C)[C@@H]3C(=O)N[C@@H](C)C(=O)N[C@H](C(=O)NCC#N)Cc4ccc(OCCN)c(c4)-c4cc3ccc4OCCN)n2C)cc1` [Compound 507], for which the MIC in experiment [1] (setting [4]) is 0.031 µg/mL (≈ 0.0342 µM); in experiment [2], 0.016 µg/mL (≈ 0.0177 µM); in experiment [3] (setting [5]), 0.75 µg/mL (≈ 0.828 µM).

With `CCCCc1ccc(C(=O)N[C@@H](CCCCN)CC(=O)N(C)[C@@H]2C(=O)N[C@@H](C)C(=O)N[C@H](C(=O)NCC#N)Cc3ccc(OCCN)c(c3)-c3cc2ccc3OCCN)c(C)c1` [Compound 509], the MIC is 3 µg/mL (≈ 3.51 µM) in experiment [1] (setting [4]), over 4 µg/mL in experiment [2] and over 64 µg/mL in experiment [3] (setting [5]).

Turning to `CCCCc1ccc(C(=O)N[C@H](CCCCN)CC(=O)N(C)[C@@H]2C(=O)N[C@@H](C)C(=O)N[C@H](C(=O)NCC#N)Cc3ccc(OCCN)c(c3)-c3cc2ccc3OCCN)c(C)c1` [Compound 510], the MIC in experiment [1] (setting [4]) was 1.5 µg/mL (≈ 1.76 µM); in experiment [2] it was over 4 µg/mL; in experiment [3] (setting [5]) it was over 64 µg/mL.

As to `CCCCc1ccc(C(=O)N[C@@H](CCN)CC(=O)N(C)[C@@H]2C(=O)N[C@@H](C)C(=O)N[C@H](C(=O)NCC#N)Cc3ccc(OCCN)c(c3)-c3cc2ccc3OCCN)c(C)c1` [Compound 511], the MIC in experiment [1] (setting [4]) is 1.5 µg/mL (≈ 1.82 µM); in experiment [2], 1 µg/mL (≈ 1.21 µM); in experiment [3] (setting [5]), over 64 µg/mL.

Turning to `CCCCCc1ccc(C(=O)N[C@@H](CCN)CC(=O)N(C)[C@@H]2C(=O)N[C@@H](C)C(=O)N[C@H](C(=O)NCC#N)Cc3ccc(OCCN)c(c3)-c3cc2ccc3OCCN)c(C)c1` [Compound 512], the MIC in experiment [1] (setting [4]) stood at 0.38 µg/mL (≈ 0.452 µM); in experiment [2] it was 0.5 µg/mL (≈ 0.595 µM); in experiment [3] (setting [5]) it was 64 µg/mL (≈ 76.2 µM).

In the case of `CCCCCCc1ccc(C(=O)N[C@@H](CCN)CC(=O)N(C)[C@@H]2C(=O)N[C@@H](C)C(=O)N[C@H](C(=O)NCC#N)Cc3ccc(OCCN)c(c3)-c3cc2ccc3OCCN)c(C)c1` [Compound 513], the MIC in experiment [1] (setting [4]) came out at 0.19 µg/mL (≈ 0.222 µM); in experiment [2], 0.13 µg/mL (≈ 0.152 µM); in experiment [3] (setting [5]), 16 µg/mL (≈ 18.7 µM).

Take `CCCCCCCCCCN(CCC(=O)N[C@@H](CCCCNC(=O)OC(C)(C)C)C(=O)N(C)[C@@H]1C(=O)N[C@@H](C)C(=O)N[C@H](C(=O)O)Cc2ccc(OC(=O)OC(C)(C)C)c(c2)-c2cc1ccc2OC1O[C@H](CO)[C@@H](O)[C@H](O)[C@H]1NC(=O)OC(C)(C)C)C(=O)OC(C)(C)C` (stereo partly drawn) [Compound 516]: the results for the MIC in experiment [1] (setting [4]), in experiment [2] and in experiment [3] (setting [5]) were 2 µg/mL (≈ 1.52 µM), over 4 µg/mL and over 64 µg/mL, respectively.

Consider `CCCCc1ccc(-c2ccc(C(=O)N[C@@H](CCC(=O)NCC(O)CO)C(=O)N(C)[C@@H]3C(=O)N[C@@H](C)C(=O)N[C@H](C(=O)NCC#N)Cc4ccc(OCCN)c(c4)-c4cc3ccc4OCCN)cc2)cc1` (stereo partly drawn) [Compound 517], for which the results for the MIC in experiment [1] (setting [4]), in experiment [2] and in experiment [3] (setting [5]) were 0.38 µg/mL (≈ 0.389 µM), 0.19 µg/mL (≈ 0.195 µM) and 6 µg/mL (≈ 6.15 µM), respectively.

As for `CCCCCCc1ccc(C(=O)N[C@@H](CCN[C@@H]2[C@@H](O)[C@H](O)[C@@H](CO)O[C@@H]2O)C(=O)N(C)[C@@H]2C(=O)N[C@@H](C)C(=O)N[C@H](C(=O)NCC#N)Cc3ccc(OCCN)c(c3)-c3cc2ccc3OCCN)c(C)c1` [Compound 518], the MIC is 0.38 µg/mL (≈ 0.379 µM) in experiment [1] (setting [6]), 0.063 µg/mL (≈ 0.0629 µM) in experiment [2] and 4 µg/mL (≈ 3.99 µM) in experiment [3] (setting [7]).
